From article PMC7957578, “N-(1,3,4-Oxadiazol-2-yl)Benzamides as Antibacterial Agents against Neisseria gonorrhoeae” (International Journal of Molecular Sciences, 2021)
≈ marks a conversion by molar mass, not a printed value.

Assays:
[1] = system: E. coli JW55031 (TolC Mutant); experiment: MIC/MBC (CLSI broth microdilution) against E. coli TolC mutant; assay type: cell-based; conditions: Escherichia coli
Experimental: (§1) The minimum inhibitory concentrations (MICs) of the tested compounds and control drugs, linezolid, vancomycin, and gentamicin, were determined using the broth microdilution method according to the guidelines outlined by the Clinical and Laboratory Standards Institute (CLSI) against clinically relevant bacterial (Staphylococcus aureus, MRSA, Escherichia coli, Enterococcus faecalis and Enterococcus faecium strains. S. aureus, MRSA, E. coli, Enterococcus faecalis and Enterococcus faecium were grown aerobically overnight on tryptone soy agar (TSA) plates at 37° C. Afterwards, a bacterial solution equivalent to 0.5 McFarland standard was prepared and diluted in cation-adjusted Mueller–Hinton broth (CAMHB) (for S. aureus, MRSA, and E. coli) to achieve a bacterial concentration of about 5 × 10^5 CFU/mL. Enterococcus faecalis and Enterococcus faecium 0.5 McFarland standard solution was diluted in tryptone soy broth (TSB) to achieve a bacterial concentration of about 5 × 10^5 CFU/mL. Compounds and control drugs were added in the first row of 96-well plates and serially diluted with the corresponding media containing bacteria. Plates were then incubated as previously described. […] The minimum bactericidal concentration (MBC) was tested by spotting 4 µL from wells with no growth onto TSA plates. Plates were incubated at 37 ° C for at least 18 h before recording the MBC. The MBC was categorized as the lowest concentration that reduced bacterial growth by 99.9% [45, 46, 47].

[2] = system: N. gonorrhoeae 166; experiment: MIC/MBC against N. gonorrhoeae clinical isolate 166; assay type: cell-based; conditions: Neisseria gonorrhoeae
Experimental: (§2) Briefly, bacteria were grown overnight on chocolate agar II at 37° C in the presence of 5% CO2. Afterwards, a bacterial suspension equivalent to 1.0 McFarland standard was prepared and diluted in brucella broth supplemented with yeast extract, neopeptone, hematin, pyridoxal, and NAD. Test agents were added in the first row of the 96-well plates and serially diluted along the plates. Plates were then incubated at 37° C in the presence of 5% CO2 for 24 h. […] Plates were then incubated at 37 ° C in the presence of 5% CO2 for 24 h. The MBC was categorized as the lowest concentration that reduced bacterial growth by 99.9% [45, 46, 47].

[3] = system: L. monocytogenes ATCC 19115; experiment: MIC/MBC (CLSI broth microdilution) against L. monocytogenes ATCC 19115; assay type: cell-based; conditions: Listeria monocytogenes, ATCC19115, L. monocytogenes ATCC 19115
[4] = system: E. faecalis ATCC 29212; experiment: MIC/MBC (CLSI broth microdilution) against E. faecalis ATCC 29212; assay type: cell-based; conditions: Enterococcus faecalis, ATCC29212, E. faecalis ATCC 29212
Experimental: as §1

[5] = system: N. gonorrhoeae 197; experiment: MIC/MBC against N. gonorrhoeae clinical isolate 197; assay type: cell-based; conditions: Neisseria gonorrhoeae
Experimental: as §2

[6] = system: VRE. faecalisATCC 51575; experiment: MIC/MBC (CLSI broth microdilution) against VRE faecalis ATCC 51575; assay type: cell-based; conditions: Enterococcus, VRE faecalis ATCC 51575
Experimental: as §1

[7] = system: tested bacterial strains (Table 3); experiment: MBC versus MIC against the panel of Gram-positive and Gram-negative pathogens; assay type: cell-based; conditions: MBCs more than three-fold higher than MICs, strains of Table 3
Experimental: While the focus of these new N-(1,3,4-oxadiazol-2-yl)benzamides is towards N. gonorrhoeae, we proceeded to test their activity against other Gram-positive and Gram-negative pathogens. Intriguingly, HSGN-235, HSGN-237, and HSGN-238 had potent activity against the tested Gram-positive bacterial pathogens. For instance, all three compounds had potent activity against the staphylococcal strains, with MICs ranging from 0.25 to 1 µg/mL (Table 3). Furthermore, HSGN-235, HSGN-237, and HSGN-238 maintained potent activity against clinically relevant Gram-positive bacterial pathogens such as vancomycin-resistant enterococci (VRE) and Listeria monocytogenes (Table 3). Additionally, we moved to test if HSGN-235, HSGN-237, and HSGN-238 were active against other Gram-negative bacterial pathogens. […] This lack of activity against Gram-negative bacteria appears to be due to HSGN-235, HSGN-237, and HSGN-238 being a substrate for efflux.
The minimum inhibitory concentrations (MICs) of the tested compounds and control drugs, linezolid, vancomycin, and gentamicin, were determined using the broth microdilution method according to the guidelines outlined by the Clinical and Laboratory Standards Institute (CLSI) against clinically relevant bacterial (Staphylococcus aureus, MRSA, Escherichia coli, Enterococcus faecalis and Enterococcus faecium strains. S. aureus, MRSA, E. coli, Enterococcus faecalis and Enterococcus faecium were grown aerobically overnight on tryptone soy agar (TSA) plates at 37° C. Afterwards, a bacterial solution equivalent to 0.5 McFarland standard was prepared and diluted in cation-adjusted Mueller–Hinton broth (CAMHB) (for S. aureus, MRSA, and E. coli) to achieve a bacterial concentration of about 5 × 10^5 CFU/mL. Enterococcus faecalis and Enterococcus faecium 0.5 McFarland standard solution was diluted in tryptone soy broth (TSB) to achieve a bacterial concentration of about 5 × 10^5 CFU/mL. Compounds and control drugs were added in the first row of 96-well plates and serially diluted with the corresponding media containing bacteria. […]

[8] = system: panel drug-resistant pathogenic N. gonorrhoeae strains; experiment: MIC/MBC against a panel of drug-resistant N. gonorrhoeae strains; assay type: cell-based, Neisseria gonorrhoeae; conditions: MBC the same as or one-fold higher than MIC
[9] = system: N. gonorrhoeae 200; experiment: MIC/MBC against N. gonorrhoeae clinical isolate 200; assay type: cell-based; conditions: Neisseria gonorrhoeae
Experimental: as §2

[10] = system: VRE. faecium ATCC 700221; experiment: MIC/MBC (CLSI broth microdilution) against VRE faecium ATCC 700221; assay type: cell-based; conditions: Enterococcus, VRE faecium ATCC 700221
Experimental: as §1

[11] = system: N. gonorrhoeae; experiment: MIC against N. gonorrhoeae in presence of fetal bovine serum; assay type: cell-based; conditions: Neisseria gonorrhoeae, 24 h
[12] = system: N. gonorrhoeae 165; experiment: MIC/MBC against N. gonorrhoeae clinical isolate 165; assay type: cell-based; conditions: Neisseria gonorrhoeae
Experimental: as §2

[13] = system: VRE. faecalis ATCC 51299; experiment: MIC/MBC (CLSI broth microdilution) against VRE faecalis ATCC 51299; assay type: cell-based; conditions: Enterococcus, VRE faecalis ATCC 51299
Experimental: as §1

[14] = system: S. aureus ATCC 25923; experiment: MIC/MBC (CLSI broth microdilution) against S. aureus ATCC 25923; assay type: cell-based; conditions: Staphylococcus aureus, ATCC25923, S. aureus ATCC 25923
Experimental: as §1

[15] = system: N. gonorrhoeae WHO L; experiment: MIC/MBC against N. gonorrhoeae WHO L reference strain; assay type: cell-based; conditions: Neisseria gonorrhoeae
Experimental: as §2

[16] = system: N. gonorrhoeae 194; experiment: MIC/MBC against N. gonorrhoeae clinical isolate 194; assay type: cell-based; conditions: Neisseria gonorrhoeae
Experimental: as §2

O=C(Nc1nnc(-c2ccc(Cl)s2)o1)c1ccc(OC(F)(F)F)cc1 [HSGN-238, N-(5-(5-Chlorothiophen-2-yl)-1,3,4-oxadiazol-2-yl)-4-(trifluoromethoxy)benzamide]
MBC [1]: 32 µg/mL (≈ 82.1 µM) | MIC [1]: 0.06 µg/mL (≈ 0.154 µM) | MBC [2]: 0.25 µg/mL (≈ 0.641 µM) | MIC [2]: 0.125 µg/mL (≈ 0.321 µM) | MBC ([3]; read-out: MBC): 32 µg/mL (≈ 82.1 µM) | MIC ([3]; read-out: MIC): 0.5 µg/mL (≈ 1.28 µM) | MBC ([4]; read-out: MBC): 32 µg/mL (≈ 82.1 µM) | MIC ([4]; read-out: MIC): 1 µg/mL (≈ 2.57 µM) | MBC [5]: 0.125 µg/mL (≈ 0.321 µM) | MIC [5]: 0.125 µg/mL (≈ 0.321 µM) | MBC ([6]; read-out: MBC): 32 µg/mL (≈ 82.1 µM) | MIC ([6]; read-out: MIC): 1 µg/mL (≈ 2.57 µM) | type of activity from MBC versus MIC [7]: bacteriostatic agents | type of activity from MBC versus MIC [8]: bactericidal activity | MBC [9]: 0.125 µg/mL (≈ 0.321 µM) | MIC [9]: 0.125 µg/mL (≈ 0.321 µM) | MBC ([10]; read-out: MBC): 8 µg/mL (≈ 20.5 µM) | MIC ([10]; read-out: MIC): 0.25 µg/mL (≈ 0.641 µM) | MIC ([11]; 1% FBS added to the media): 0.25 µg/mL | MIC ([11]; 5% FBS added to the media): 1 µg/mL | MIC ([11]; 10% FBS added to the media): 1 µg/mL | MBC [12]: 0.25 µg/mL (≈ 0.641 µM) | MIC [12]: 0.125 µg/mL (≈ 0.321 µM) | MBC ([13]; read-out: MBC): 8 µg/mL (≈ 20.5 µM) | MIC ([13]; read-out: MIC): 0.25 µg/mL (≈ 0.641 µM) | MBC ([14]; read-out: MBC): > 64 µg/mL | MIC ([14]; read-out: MIC): 0.25 µg/mL (≈ 0.641 µM) | MBC [15]: 0.125 µg/mL (≈ 0.321 µM) | MIC [15]: 0.06 µg/mL (≈ 0.154 µM) | MBC [16]: 0.125 µg/mL (≈ 0.321 µM) | MIC [16]: 0.125 µg/mL (≈ 0.321 µM)
